{"source": "patent US20220356163A1", "about": "“SMALL MOLECULE INHIBITORS OF Id PROTEINS” (MEMORIAL SLOAN KETTERING CANCER CENTER, priority 2019, published 2022)", "key": {"[1]": {"assay": "Concentration of AGX51 in the eyes after i.p. dosing", "format": "in vivo, mouse", "details": "30 mg/kg i.p.", "protocol": "Pharmacokinetic analyses. To determine the pharmacokinetic parameters of AGX51, eight-week old male Balb/c mice (Taconic farms) were dosed once by i.p. injection with 30 mg/kg, 50 mg/kg or 100 mg/kg AGX51 prepared in 70% DMSO (n=3 mice per group). Another set of three mice was dosed with 100 mg/kg AGX51 prepared in 100% DMSO. Blood was collected at 30 minutes, 1 hour, 3 hours, 6 hours and 24 hours post AGX51 administration and plasma analyzed via LC-MS as per the protocol previously validated in the MSKCC Antitumor Assessment Core Facility. Following blood collection, the mice were sacrificed via CO2 asphyxiation and the eyes from the 30 mg/kg treatment group were collected and flash frozen for analysis. Data obtained from LC-MS was analyzed via WinNonLin software (version 8.1) for pharmacokinetic parameters.\nThe concentration of AGX51 was thus measured in the eyes of mice dosed i.p. with 30 mg/kg AGX51 by mass spectrometry over 24 hours. […] The amount of AGX51 reaching the eye was well below the amount required by intraocular injection to show efficacy, which could be due to incomplete recovery from the extraction of dissected eyes or that effective dose ranges vary considerably with delivery route."}, "MCF-7": {"system": "MCF-7", "assay": "MTT assay, MCF-7", "format": "cell-based", "details": "Homo sapiens, MCF7, 24 h, MCF-7, ER +ve cell line, read-out: IC50 value after 24 hours of treatment", "from_the_text": "The 4T1 murine mammary tumor cell line and nine breast cancer cell lines representing the major breast cancer subtypes (ER+, HER2+, and TNBC) including MDA-MB-157, MDA-MB-436, MDA-MB-231, MDA-MB-453, MDA-MB-361, BT-474, SK-BR-3, MCF-7 and T47-D will be grown in RPMI or DMEM (Dulbecco's Modified Eagle Medium) media supplemented with 10% FBS (fetal bovine serum), 1% penicillin-streptomycin and 1% L-Glutamine. Patient derived xenograft cell lines BR7, BR11, and IBT will be established directly from breast cancer bone metastases specimens surgically resected from patients with informed consent. BR7 and BR11 specimens will be obtained from ER positive (HER2 negative and PR negative) metastatic breast cancer patients, while the IBT specimen will be obtained from a metastatic, triple negative breast cancer patient. Fresh tumor tissues will be quickly washed with ice cold PBS and minced into about 1-3 mm pieces in MEM medium (without FBS) using sterile razor blades. […] The cells will be treated with either 100 μM DMSO, AGX51, or a compound of the present technology such as AGX-A. The cell morphology and growth will be monitored daily for 1 week by microscopy for changes in morphology or cell death. […] Absorbance will then measured at 570 nm using a plate reader (Synergy 2, BioTek). […]"}, "ID1-E47": {"target": "T1, ID1-E47 (Homo sapiens, UniProt P41134)", "T1 construct": "host or cells: HCT116", "T1 sequence (P41134 whole entry)": "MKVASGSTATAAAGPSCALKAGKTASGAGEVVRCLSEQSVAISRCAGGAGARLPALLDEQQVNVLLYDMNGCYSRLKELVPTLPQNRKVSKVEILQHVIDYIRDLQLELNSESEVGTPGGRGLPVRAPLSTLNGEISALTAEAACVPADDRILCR", "assay": "Immunoprecipitation of endogenous ID1 and E47 in HCT116 cells", "format": "cell-based", "details": "60 μM, one hour", "protocol": "Immunoprecipitation. Cells were lysed in NP40 lysis buffer (50 mM Tris-HCl, pH 7.5, 150 mM NaCl, 1 mM EDTA, 1% NP40, 1.5 mM Na3VO4, 50 mM sodium fluoride, 10 mM sodium pyrophosphate, 10 mM P-glycerolphosphate and EDTA free protease inhibitor cocktail (Roche)) or RIPA buffer (50 mM Tris-HCl, pH 7.5, 150 mM NaCl, 1 mM EDTA, 1% NP40, 0.5% Sodium Deoxycholate, 0.1% Sodium dodecyl sulfate, 1.5 mM Na3VO4, 50 mM sodium fluoride, 10 mM sodium pyrophosphate, 10 mM P-glycerolphosphate and EDTA free protease inhibitor cocktail (Roche)). Lysates were cleared by centrifuge at 15,000 rpm for 15 minutes at 4° C. For immunoprecipitation, cell lysates were incubated with primary antibody (FLAG M2 affinity gel, Sigma, F2426; ID1 (C-20), Santa Cruz, sc-488; E2A (N-649), Santa Cruz, sc-763) and protein G/A beads (Santa Cruz, sc-2003) at 4° C. overnight. Beads were washed with lysis buffer four times and eluted in 2×SDS sample buffer. Protein samples were separated by SDS-PAGE and transferred to a polyvinylidene fluoride (PVDF) membrane. Membranes were blocked in TBS containing 5% non-fat milk and 0.1% Tween20, and probed with primary antibodies. […]"}}, "data": [{"smiles": "CCC(=O)N(CCC(c1ccc2c(c1)OCO2)c1ccccc1OC)Cc1ccccc1", "note": "(racemic) [AGX51, N-(3-(benzo[d][1,3]dioxol-5-yl)-3-(2-methoxyphenyl)propyl)-N-benzylpropionamide]", "values": [{"measurement": "half-life in the eye", "setting": "[1]", "result": 3.7, "unit": "h"}, {"measurement": "maximum concentration in the eye", "setting": "[1]; after 30 minutes", "result": "~4", "unit": "ng/eye"}, {"measurement": "IC50", "setting": "MCF-7", "result": 60, "unit": "µM"}, {"measurement": "co-precipitated ID1/E47 proteins", "setting": "ID1-E47", "result": "markedly reduced the levels of the co-precipitated proteins"}]}]}
